Test system: MV-4-11 cells
Experiment: Gene expression microarray analysis (Affymetrix PrimeView) and GSEA
Format: cell-based, human
Set-up: RFU PODN (11730768_x_at) / Fold change /veh PODN (11730768_x_at) / RFU LINC00158 (11744669_a_at) / Fold change /veh LINC00158 (11744669_a_at) / RFU DUSP10 (11751237_a_at) / Fold change /veh DUSP10 (11751237_a_at) / RFU ID3 (11757404_x_at) / Fold change /veh ID3 (11757404_x_at) / RFU PLEKHG5 (11737974_s_at) / Fold change /veh PLEKHG5 (11737974_s_at) / RFU LRRC4B (11730491_at) / Fold change /veh LRRC4B (11730491_at) / RFU GIMAP4 (11747438_a_at) / Fold change /veh GIMAP4 (11747438_a_at) / RFU KRT8 (11758183_x_at) / Fold change /veh KRT8 (11758183_x_at) / RFU CNN1 (11734310_a_at) / Fold change /veh CNN1 (11734310_a_at) / RFU VPS37D (11726825_at) / Fold change /veh VPS37D (11726825_at) / RFU C10orf10 (11716522_x_at) / Fold change /veh C10orf10 (11716522_x_at) / RFU KIR2DL2 /// KIR2DL4 /// KIR2DL5A /// KIR2DL5B /// KIR2DS1 /// KIR2DS2 /// KIR2DS3 /// KIR2DS4 /// KIR3DL3 /// KIR3DL3 /// KIR3DS1 (11738374_at) / Fold change /veh KIR2DL2 /// KIR2DL4 /// KIR2DL5A /// KIR2DL5B /// KIR2DS1 /// KIR2DS2 /// KIR2DS3 /// KIR2DS4 /// KIR3DL3 /// KIR3DL3 /// KIR3DS1 (11738374_at) / RFU C1QL1 (11718748_at) / Fold change /veh C1QL1 (11718748_at) / RFU TMPRSS4 (11747572_a_at) / Fold change /veh TMPRSS4 (11747572_a_at) / RFU HAMP (11756126_x_at) / Fold change /veh HAMP (11756126_x_at) / RFU RNFT2 (11725882_a_at) / Fold change /veh RNFT2 (11725882_a_at) / RFU NR4A2 (11747474_a_at) / Fold change /veh NR4A2 (11747474_a_at) / RFU ABCC12 (11746883_a_at) / Fold change /veh ABCC12 (11746883_a_at) / RFU TMEM136 (11760407_x_at) / Fold change /veh TMEM136 (11760407_x_at) / RFU CLDN22 /// WWC2 (11732394_at) / Fold change /veh CLDN22 /// WWC2 (11732394_at) / RFU HLA-DPB1 (11760878_x_at) / Fold change /veh HLA-DPB1 (11760878_x_at) / RFU SPINT1 (11716480_a_at) / Fold change /veh SPINT1 (11716480_a_at) / RFU GAP43 (11754022_s_at) / Fold change /veh GAP43 (11754022_s_at) / RFU A4GNT (11735810_at) / Fold change /veh A4GNT (11735810_at) / RFU PRB3 (11715151_x_at) / Fold change /veh PRB3 (11715151_x_at) / RFU TUBB4B (11761932_at) / Fold change /veh TUBB4B (11761932_at) / RFU CAPN14 (11732068_a_at) / Fold change /veh CAPN14 (11732068_a_at) / RFU TMCC2 (11721928_a_at) / Fold change /veh TMCC2 (11721928_a_at) / RFU IRGQ (11745062_a_at) / Fold change /veh IRGQ (11745062_a_at) / RFU FAM174B (11720279_a_at) / Fold change /veh FAM174B (11720279_a_at) / RFU TMPRSS4 (11748680_a_at) / Fold change /veh TMPRSS4 (11748680_a_at) / RFU FAM212B (11763350_a_at) / Fold change /veh FAM212B (11763350_a_at) / RFU PLEKHG5 (11743358_a_at) / Fold change /veh PLEKHG5 (11743358_a_at) / RFU ZSCAN30 (11745921_a_at) / Fold change /veh ZSCAN30 (11745921_a_at) / RFU CMKLR1 (11741424_a_at) / Fold change /veh CMKLR1 (11741424_a_at) / RFU LOC101060620 /// MAPK8IP1 (11723275_at) / Fold change /veh LOC101060620 /// MAPK8IP1 (11723275_at) / RFU SPTSSB (11747773_x_at) / Fold change /veh SPTSSB (11747773_x_at) / RFU PRSS12 (11739890_at) / Fold change /veh PRSS12 (11739890_at) / RFU BIN1 (11741810_x_at) / Fold change /veh BIN1 (11741810_x_at) / RFU WNT11 (11732464_a_at) / Fold change /veh WNT11 (11732464_a_at) / RFU C10orf10 (11716521_a_at) / Fold change /veh C10orf10 (11716521_a_at) / RFU C5orf56 (11738089_at) / Fold change /veh C5orf56 (11738089_at) / RFU CYB561 (11721691_x_at) / Fold change /veh CYB561 (11721691_x_at) / RFU ANKRD19P (11752326_a_at) / Fold change /veh ANKRD19P (11752326_a_at) / RFU OR2T12 /// OR2T33 /// OR2T8 (11738714_s_at) / Fold change /veh OR2T12 /// OR2T33 /// OR2T8 (11738714_s_at) / RFU VCAN (11748164_a_at) / Fold change /veh VCAN (11748164_a_at) / RFU JSRP1 (11732532_at) / Fold change /veh JSRP1 (11732532_at) / RFU KRTAP10-11 (11738290_x_at) / Fold change /veh KRTAP10-11 (11738290_x_at) / RFU MYO3A (11730013_a_at) / Fold change /veh MYO3A (11730013_a_at) / RFU EBF3 (11725865_a_at) / Fold change /veh EBF3 (11725865_a_at) / RFU CAMK2N1 (11719241_x_at) / Fold change /veh CAMK2N1 (11719241_x_at) / RFU C5orf56 (11738088_a_at) / Fold change /veh C5orf56 (11738088_a_at) / RFU OLFML3 (11715873_a_at) / Fold change /veh OLFML3 (11715873_a_at) / RFU LOC100653217 /// NTM (11731650_a_at) / Fold change /veh LOC100653217 /// NTM (11731650_a_at) / RFU MAPK11 (11762145_a_at) / Fold change /veh MAPK11 (11762145_a_at) / RFU FIZ1 (11724087_x_at) / Fold change /veh FIZ1 (11724087_x_at) / RFU OASL (11726364_x_at) / Fold change /veh OASL (11726364_x_at) / RFU SOX15 (11748057_x_at) / Fold change /veh SOX15 (11748057_x_at) / RFU CD79A (11719716_a_at) / Fold change /veh CD79A (11719716_a_at) / RFU HIST1H1D (11736915_at) / Fold change /veh HIST1H1D (11736915_at) / RFU CASKIN2 (11723855_a_at) / Fold change /veh CASKIN2 (11723855_a_at) / RFU LOC730098 (11760151_x_at) / Fold change /veh LOC730098 (11760151_x_at) / RFU OR4N2 (11742367_at) / Fold change /veh OR4N2 (11742367_at) / RFU PRRT2 (11749266_a_at) / Fold change /veh PRRT2 (11749266_a_at) / RFU SNX32 (11753110_a_at) / Fold change /veh SNX32 (11753110_a_at) / RFU CDHR5 (11726645_a_at) / Fold change /veh CDHR5 (11726645_a_at) / RFU RCAN1 (11760418_a_at) / Fold change /veh RCAN1 (11760418_a_at) / RFU FAM167A (11723789_a_at) / Fold change /veh FAM167A (11723789_a_at) / RFU FAM26E (11764081_at) / Fold change /veh FAM26E (11764081_at) / RFU ISYNA1 (11749810_s_at) / Fold change /veh ISYNA1 (11749810_s_at) / RFU ACY1 (11761880_at) / Fold change /veh ACY1 (11761880_at) / RFU 11764098_at / Fold change /veh 11764098_at / RFU SAMD14 (11745864_x_at) / Fold change /veh SAMD14 (11745864_x_at) / RFU NPB (11741838_a_at) / Fold change /veh NPB (11741838_a_at) / RFU TMPRSS6 (11731388_a_at) / Fold change /veh TMPRSS6 (11731388_a_at) / RFU KRTAP10-2 (11738614_at) / Fold change /veh KRTAP10-2 (11738614_at) / RFU ARHGAP8 /// PRR5-ARHGAP8 (11727945_x_at) / Fold change /veh ARHGAP8 /// PRR5-ARHGAP8 (11727945_x_at) / RFU KRTAP5-7 /// NADSYN1 (11734609_at) / Fold change /veh KRTAP5-7 /// NADSYN1 (11734609_at) / RFU RASL12 (11751679_a_at) / Fold change /veh RASL12 (11751679_a_at) / RFU CDKN2B (11736163_a_at) / Fold change /veh CDKN2B (11736163_a_at) / RFU PRF1 (11729649_at) / Fold change /veh PRF1 (11729649_at) / RFU, ZNF638 /// ZNF638-IT1 / Fold change vs veh, ZNF638 /// ZNF638-IT1 / RFU, PANK3 / Fold change vs veh, PANK3 / RFU, SH3YL1 / Fold change vs veh, SH3YL1 / RFU, ZEB2 / Fold change vs veh, ZEB2 / RFU, NRIP1 / Fold change vs veh, NRIP1 / RFU, PTTG1IP / Fold change vs veh, PTTG1IP / RFU, CAPN2 / Fold change vs veh, CAPN2 / RFU, MED14 / Fold change vs veh, MED14 / RFU, SNORA58 / Fold change vs veh, SNORA58 / RFU, C1orf63 / Fold change vs veh, C1orf63 / RFU, LRRFIP1 / Fold change vs veh, LRRFIP1 / RFU, NDUFAF7 / Fold change vs veh, NDUFAF7 / RFU, SLC12A2 / Fold change vs veh, SLC12A2 / RFU, IBTK / Fold change vs veh, IBTK / RFU, ESF1 / Fold change vs veh, ESF1 / Fold change vs veh, TMEM50B / RFU, TAOK1 / Fold change vs veh, TAOK1 / RFU, ACBD3 / Fold change vs veh, ACBD3 / RFU, TMA16 / Fold change vs veh, TMA16 / RFU, RWDD3 / Fold change vs veh, RWDD3 / RFU, BCAT1 / Fold change vs veh, BCAT1 / RFU, EDEM3 / Fold change vs veh, EDEM3 / RFU, TMEM33 / Fold change vs veh, TMEM33 / RFU, WDR75 / Fold change vs veh, WDR75 / RFU, AHCTF1 / Fold change vs veh, AHCTF1 / RFU, TFRC / Fold change vs veh, TFRC / RFU, ZDHHC17 / Fold change vs veh, ZDHHC17 / RFU, NOM1 / Fold change vs veh, NOM1 / RFU, ARL8B / Fold change vs veh, ARL8B / RFU, ZBTB11 / Fold change vs veh, ZBTB11 / RFU, TAMM41 / Fold change vs veh, TAMM41 / RFU, KIAA1704 /// LOC100996395 / Fold change vs veh, KIAA1704 /// LOC100996395 / RFU, ING1 / Fold change vs veh, ING1 / RFU, TRMT61B / Fold change vs veh, TRMT61B / RFU, FUBP3 / Fold change vs veh, FUBP3 / RFU, TP53 / Fold change vs veh, TP53 / RFU, TNKS2 / Fold change vs veh, TNKS2 / RFU, ZFP14 / Fold change vs veh, ZFP14 / RFU, ACTR2 / Fold change vs veh, ACTR2 / RFU, PPP3R1 / Fold change vs veh, PPP3R1 / RFU, PIK3R1 / Fold change vs veh, PIK3R1 / RFU, HNRNPA1 / Fold change vs veh, HNRNPA1 / RFU, RNF170 / Fold change vs veh, RNF170 / RFU, ZNF28 / Fold change vs veh, ZNF28 / RFU, RNGTT / Fold change vs veh, RNGTT / RFU, OGT / Fold change vs veh, OGT / RFU, BRD1 / Fold change vs veh, BRD1 / RFU, MARS / Fold change vs veh, MARS / RFU, ZNF655 / Fold change vs veh, ZNF655 / RFU, FAHD1 / Fold change vs veh, FAHD1 / RFU, BDP1 / Fold change vs veh, BDP1 / RFU, LRRCC1 / Fold change vs veh, LRRCC1 / RFU, ARID1A / Fold change vs veh, ARID1A / RFU, ZNF146 / Fold change vs veh, ZNF146 / RFU, ZNF330 / Fold change vs veh, ZNF330 / RFU, GPN3 / Fold change vs veh, GPN3 / RFU, C9orf123 / Fold change vs veh, C9orf123 / RFU, N4BP2L2 / Fold change vs veh, N4BP2L2 / RFU, ARFIP1 / Fold change vs veh, ARFIP1 / RFU, FAM179B / Fold change vs veh, FAM179B / RFU, BCL10 / Fold change vs veh, BCL10 / RFU, UHRF1BP1L / Fold change vs veh, UHRF1BP1L / RFU, BET1 / Fold change vs veh, BET1 / RFU, CNOT2 / Fold change vs veh, CNOT2 / RFU, ZNF268 / Fold change vs veh, ZNF268 / Fold change vs veh, ZNF507 / RFU, DGCR2 / Fold change vs veh, DGCR2 / RFU, WDSUB1 / Fold change vs veh, WDSUB1 / Fold change vs veh, HSP90B1 /// MIR3652 / RFU, ADSS / Fold change vs veh, ADSS / RFU, GK / Fold change vs veh, GK / RFU, ZNF148 / Fold change vs veh, ZNF148 / RFU, TAF9 / Fold change vs veh, TAF9 / RFU, SLC1A5 / Fold change vs veh, SLC1A5 / RFU, SLMO2 / Fold change vs veh, SLMO2 / RFU, ABCC4 / Fold change vs veh, ABCC4 / RFU, LOC101060439 /// RAP1B / Fold change vs veh, LOC101060439 /// RAP1B / RFU, RFX7 / Fold change vs veh, RFX7 / RFU, GTPBP10 / Fold change vs veh, GTPBP10 / RFU, CNEP1R1 / Fold change vs veh, CNEP1R1 / RFU, BIVM-ERCC5 /// ERCC5 / Fold change vs veh, BIVM-ERCC5 /// ERCC5 / RFU, ILF3 / Fold change vs veh, ILF3 / RFU 11762660_at / Fold change /veh 11762660_at / RFU VCAN (11757783_s_at) / Fold change /veh VCAN (11757783_s_at) / RFU DDX43 (11728927_at) / Fold change /veh DDX43 (11728927_at) / RFU KRT8 (11758188_x_at) / Fold change /veh KRT8 (11758188_x_at) / RFU NKD1 (11759106_at) / Fold change /veh NKD1 (11759106_at) / RFU SRD5A1 (11742802_a_at) / Fold change /veh SRD5A1 (11742802_a_at) / RFU TPSAB1 /// TPSB2 (11721975_s_at) / Fold change /veh TPSAB1 /// TPSB2 (11721975_s_at) / RFU GSTM3 (11746129_a_at) / Fold change /veh GSTM3 (11746129_a_at) / RFU IL23R (11737362_x_at) / Fold change /veh IL23R (11737362_x_at) / RFU TMEM51 (11727254_a_at) / Fold change /veh TMEM51 (11727254_a_at) / RFU PIWIL2 (11732686_x_at) / Fold change /veh PIWIL2 (11732686_x_at) / RFU ORM1 (11744905_x_at) / Fold change /veh ORM1 (11744905_x_at) / RFU CCDC152 (11743942_at) / Fold change /veh CCDC152 (11743942_at) / RFU ECM1 (11717891_a_at) / Fold change /veh ECM1 (11717891_a_at) / RFU IL23R (11748794_a_at) / Fold change /veh IL23R (11748794_a_at) / RFU TNFAIP8L3 (11732012_x_at) / Fold change /veh TNFAIP8L3 (11732012_x_at) / RFU MBOAT4 (11741988_at) / Fold change /veh MBOAT4 (11741988_at) / RFU 11764193_at / Fold change /veh 11764193_at / RFU TMEM53 (11763286_at) / Fold change /veh TMEM53 (11763286_at) / RFU MAGEB2 (11727129_at) / Fold change /veh MAGEB2 (11727129_at) / RFU TMEM200A (11744735_a_at) / Fold change /veh TMEM200A (11744735_a_at) / RFU CCDC152 (11751479_a_at) / Fold change /veh CCDC152 (11751479_a_at) / RFU FAM211A (11726209_a_at) / Fold change /veh FAM211A (11726209_a_at) / RFU RGS16 (11746705_a_at) / Fold change /veh RGS16 (11746705_a_at) / RFU VCAN (11755009_s_at) / Fold change /veh VCAN (11755009_s_at) / RFU RHOB (11743442_s_at) / Fold change /veh RHOB (11743442_s_at) / RFU RGS16 (11720943_a_at) / Fold change /veh RGS16 (11720943_a_at) / RFU RGS16 (11720944_at) / Fold change /veh RGS16 (11720944_at) / RFU, VPS4B / Fold change vs veh, VPS4B / RFU, CREB1 / Fold change vs veh, CREB1 / RFU, DNAJC13 / Fold change vs veh, DNAJC13 / RFU, GNAQ / Fold change vs veh, GNAQ / RFU, CDK5R1 / Fold change vs veh, CDK5R1 / RFU, ZRANB3 / Fold change vs veh, ZRANB3 / RFU, CUL4A / Fold change vs veh, CUL4A / RFU, CCNY / Fold change vs veh, CCNY / RFU, UFL1 / Fold change vs veh, UFL1 / RFU, COG3 / Fold change vs veh, COG3 / RFU, DIAPH2 / Fold change vs veh, DIAPH2 / RFU, SKA2 / Fold change vs veh, SKA2 / RFU, AFF3 / Fold change vs veh, AFF3 / RFU, LMF1 / Fold change vs veh, LMF1 / RFU, IPO11 / Fold change vs veh, IPO11 / RFU, DFFB / Fold change vs veh, DFFB / RFU, FOXP1 / Fold change vs veh, FOXP1 / RFU, CARD8 / Fold change vs veh, CARD8 / RFU, STRN3 / Fold change vs veh, STRN3 / RFU, ADK / Fold change vs veh, ADK / RFU, RASSF2 / Fold change vs veh, RASSF2 / RFU, WIPF1 / Fold change vs veh, WIPF1 / RFU, LARP1B / Fold change vs veh, LARP1B / RFU, RASA1 / Fold change vs veh, RASA1 / RFU, RB1 / Fold change vs veh, RB1 / RFU, PPFIA1 / Fold change vs veh, PPFIA1 / RFU, MAT2A / Fold change vs veh, MAT2A / RFU, CCT5 / Fold change vs veh, CCT5 / RFU, WDR92 / Fold change vs veh, WDR92 / RFU, CUX1 / Fold change vs veh, CUX1 / RFU, TTC7A / Fold change vs veh, TTC7A / RFU, TMEM135 / Fold change vs veh, TMEM135 / RFU, DEPTOR / Fold change vs veh, DEPTOR / RFU, CPM / Fold change vs veh, CPM / RFU, DNAJB6 / Fold change vs veh, DNAJB6 / RFU, CACNA2D3 / Fold change vs veh, CACNA2D3 / RFU, DTX4 / Fold change vs veh, DTX4 / RFU, TFCP2 / Fold change vs veh, TFCP2 / RFU, GMCL1 /// GMCL1P1 / Fold change vs veh, GMCL1 /// GMCL1P1 / RFU, AEBP2 / Fold change vs veh, AEBP2 / RFU, SNHG1 /// SNORD22 /// SNORD25 /// SNORD26 /// SNORD27 /// SNORD28 /// SNORD29 /// SNORD31 / Fold change vs veh, SNHG1 /// SNORD22 /// SNORD25 /// SNORD26 /// SNORD27 /// SNORD28 /// SNORD29 /// SNORD31 / Fold change (Aza/veh), C12orf56 (ProbeSet 11735607_a_at) / Fold change (ACY-1035/veh), C12orf56 (ProbeSet 11735607_a_at) / Fold change (Aza/veh), FGFR1OP (ProbeSet 11751329_s_at) / Fold change (ACY-1035/veh), FGFR1OP (ProbeSet 11751329_s_at) / Fold change (Aza/veh), VPS36 (ProbeSet 11739960_a_at) / Fold change (ACY-1035/veh), VPS36 (ProbeSet 11739960_a_at) / RFU SYPL1 (11715823_x_at) / Fold change /veh SYPL1 (11715823_x_at) / RFU IGFBP7 (11715501_s_at) / Fold change /veh IGFBP7 (11715501_s_at) / RFU REEP3 (11722064_at) / Fold change /veh REEP3 (11722064_at) / RFU IGLL1 (11728026_x_at) / Fold change /veh IGLL1 (11728026_x_at): dose or concentration left out as unconfirmed
Conditions: MV-4-11 cells, 48 hours

## Nc1ncn([C@@H]2O[C@H](CO)[C@@H](O)[C@H]2O)c(=O)n1 [azacitidine]
  Fold change /veh KRTAP5-7 /// NADSYN1 (11734609_at): 1.00

From article PMC5218480 (PLoS ONE, 2017)
